Measurements as given in US20240226106A1, “INHIBITORS OF PLASMA KALLIKREIN” (SHIRE HUMAN GENETIC THERAPIES, INC., priority 2021, published 2024).

Target: human activated kallikrein enzyme (Homo sapiens, UniProt P03952)
Assay: Inhibition of human activated plasma kallikrein, fluorogenic peptide substrate (PFR-AMC), 500 pM enzyme format
Assay type: biochemical
Settings: 500 pM activated kallikrein, 30 min preincubation, 10 min reaction, room temperature, read-out: Primary Dose Response Assay: Average EC50
Procedure: Compounds were evaluated for inhibition of the human activated kallikrein enzyme in two formats of an assay employing a fluorogenic peptide substrate. In one assay format, the concentrations of reagents were as follows: 20 mM Tris pH 7.5, 1 mM EDTA, 150 mM sodium chloride, 0.1% PEG-400, 0.1% Triton X-100, 500 pM activated kallikrein enzyme, […] Pro-Phe-Arg-7-amido-4-methylcoumarin (PFR-AMC) substrate. Prior to reaction initiation with substrate, enzyme and inhibitors were preincubated for 30 min at room temperature. After initiation with substrate, reactions were incubated for 10 min at room temperature and fluorescence emission at 460 nm from 380 nm excitation measured with a microplate reader. In another assay format, the concentrations of reagents were as follows: 20 mM Tris pH 7.5, 1 mM EDTA, 150 mM sodium chloride, 0.1% PEG-400, 0.1% Triton X-100, 5 pM activated kallikrein enzyme, 300 uM PFR-AMC substrate. Prior to reaction initiation with substrate, enzyme and inhibitors were preincubated for 30 min at room temperature. After initiation with substrate, reactions were incubated for 18 hr at room temperature and fluorescence emission at 460 nm from 380 nm excitation measured with a microplate reader.

Chain of human activated kallikrein enzyme (P03952 391-638 limits assumed): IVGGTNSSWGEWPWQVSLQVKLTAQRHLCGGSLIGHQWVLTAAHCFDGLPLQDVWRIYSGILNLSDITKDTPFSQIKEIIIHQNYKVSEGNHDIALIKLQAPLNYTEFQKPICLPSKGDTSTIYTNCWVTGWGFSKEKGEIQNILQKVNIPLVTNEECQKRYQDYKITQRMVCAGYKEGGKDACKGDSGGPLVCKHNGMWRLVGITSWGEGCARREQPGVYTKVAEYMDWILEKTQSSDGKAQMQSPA
Chain of human activated kallikrein enzyme (P03952 20-390 partner limits assumed): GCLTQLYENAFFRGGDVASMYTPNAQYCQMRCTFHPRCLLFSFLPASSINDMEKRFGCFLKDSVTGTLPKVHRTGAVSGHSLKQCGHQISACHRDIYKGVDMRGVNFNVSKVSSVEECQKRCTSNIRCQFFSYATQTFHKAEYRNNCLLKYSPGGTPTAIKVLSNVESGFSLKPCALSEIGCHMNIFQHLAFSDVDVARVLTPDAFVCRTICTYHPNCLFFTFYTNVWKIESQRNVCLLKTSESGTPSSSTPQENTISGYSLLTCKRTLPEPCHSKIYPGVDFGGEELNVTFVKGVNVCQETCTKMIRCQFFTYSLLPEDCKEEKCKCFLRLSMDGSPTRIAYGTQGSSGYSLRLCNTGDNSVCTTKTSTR

Row | SMILES | EC50 [nM]
1 | O=C(Nc1cc(OCc2ccc(Cn3cccn3)cc2)cnn1)[C@H]1C[C@@H]1c1cncc(Cl)c1 (racemic) [Example 1, rac-(1S*,2S*)—N-(5-((4-((1H-pyrazol-1-yl)methyl)benzyl)oxy)pyridazin-3-yl)-2-(5-chloropyridin-3-yl)cyclopropane-1-carboxamide] | > 500
2 | O=C(Nc1cc(OCc2csc(-c3ccccc3)n2)cnn1)[C@H]1C[C@@H]1c1cccc(Cl)c1 (racemic) [Example 2, rac-(1S*,2S*)-2-(3-chlorophenyl)-N-(5-((2-phenylthiazol-4-yl)methoxy)pyridazin-3-yl)cyclopropane-1-carboxamide] | > 500
3 | O=C(Nc1cc(OCc2ccc(Cn3ccc(C4CC4)n3)cc2)cnn1)[C@H]1C[C@@H]1c1cccc(Cl)c1 (racemic) [Example 4, rac-(1S*,2S*)-2-(3-chlorophenyl)-N-(5-((4-((3-cyclopropyl-1H-pyrazol-1-yl)methyl)benzyl)oxy)pyridazin-3-yl)cyclopropane-1-carboxamide] | > 500
4 | O=C(Nc1cc(OCc2ccc(Cn3cccn3)cc2)cnn1)[C@H]1C[C@@H]1c1cccnc1Cl (racemic) [Example 5, rac-(1S*,2S*)—N-(5-((4-((1H-pyrazol-1-yl)methyl)benzyl)oxy)pyridazin-3-yl)-2-(2-chloropyridin-3-yl)cyclopropane-1-carboxamide] | > 500
5 | O=C(Nc1cc(OCc2ccc(Cn3cccn3)cc2)cnn1)[C@H]1C[C@@H]1c1cn[nH]c1 (racemic) [Example 6, rac-(1S*,2S*)—N-(5-((4-((1H-pyrazol-1-yl)methyl)benzyl)oxy)pyridazin-3-yl)-2-(1H-pyrazol-4-yl)cyclopropane-1-carboxamide] | > 500
6 | Nc1ncccc1[C@H]1C[C@@H]1C(=O)Nc1cc(OCc2ccc(Cn3cccn3)cc2)cnn1 (racemic) [Example 8, rac-(1S*,2S*)—N-(5-((4-((1H-pyrazol-1-yl)methyl)benzyl)oxy)pyridazin-3-yl)-2-(2-aminopyridin-3-yl)cyclopropane-1-carboxamide] | 25 to 500
7 | O=C(Nc1cn(Cc2ccc(Cn3cccn3)cc2)cn1)[C@H]1C[C@@H]1c1cccc(Cl)c1 (racemic) [Example 9, rac-(1S*,2S*)—N-(1-(4-((1H-pyrazol-1-yl)methyl)benzyl)-1H-imidazol-4-yl)-2-(3-chlorophenyl)cyclopropane-1-carboxamide] | > 500
8 | O=C(Nc1cnn(Cc2ccc(Cn3cccn3)cc2)c1)[C@H]1C[C@@H]1c1cccc(Cl)c1 (racemic) [Example 10, rac-(1S*,2S*)—N-(1-(4-((1H-pyrazol-1-yl)methyl)benzyl)-1H-pyrazol-4-yl)-2-(3-chlorophenyl)cyclopropane-1-carboxamide] | > 500
9 | Cc1cnn(-c2cc(COc3cnnc(NC(=O)[C@H]4C[C@@H]4c4cccc(Cl)c4)c3)ccn2)c1 (racemic) [Example 11, rac-(1S*,2S*)-2-(3-chlorophenyl)-N-(5-((2-(4-methyl-1H-pyrazol-1-yl)pyridin-4-yl)methoxy)pyridazin-3-yl)cyclopropanecarboxamide] | > 500
10 | O=C(Nc1cc(OCc2ccc(-n3ccnc3)cc2)cnn1)[C@H]1C[C@@H]1c1cccc(Cl)c1 (racemic) [Example 12, rac-(1S*,2S*)—N-(5-((4-(1H-imidazol-1-yl)benzyl)oxy)pyridazin-3-yl)-2-(3-chlorophenyl)cyclopropane-1-carboxamide] | > 500
11 | O=C(Nc1cc(OCc2ccc(-c3ncc[nH]3)cc2)cnn1)[C@H]1C[C@@H]1c1cccc(Cl)c1 (racemic) [Example 13, rac-(1S*,2S*)—N-(5-((4-(1H-imidazol-2-yl)benzyl)oxy)pyridazin-3-yl)-2-(3-chlorophenyl)cyclopropane-1-carboxamide] | > 500
12 | O=C(Nc1cc(NCc2ccc(Cn3ccccc3=O)cc2)cnn1)[C@H]1C[C@@H]1c1cccc(Cl)c1 (racemic) [Example 14, rac-(1S*,2S*)-2-(3-chlorophenyl)-N-(5-((4-((2-oxopyridin-1 (2H)-yl)methyl)benzyl)amino)pyridazin-3-yl)cyclopropane-1-carboxamide] | < 2.5
13 | O=C(Nc1cc(NCc2ccc(Cn3cc(Cl)ccc3=O)cc2)cnn1)[C@H]1C[C@@H]1c1cccc(Cl)c1 (racemic) [Example 17, rac-(1S*,2S*)—N-(5-((4-((5-chloro-2-oxopyridin-1 (2H)-yl)methyl)benzyl)amino)pyridazin-3-yl)-2-(3-chlorophenyl)cyclopropane-1-carboxamide] | 2.5 to 25
14 | O=C(Nc1cc(OCc2ccc(Cn3cccn3)cc2)cnn1)[C@H]1C[C@@H]1c1cccc(Cl)c1 (racemic) [Example 18, rac-(1S*,2S*)—N-(5-((4-((1H-pyrazol-1-yl)methyl)benzyl)oxy)pyridazin-3-yl)-2-(3-chlorophenyl)cyclopropane-1-carboxamide] | 2.5 to 25
15 | O=C(Nc1cc(NCc2ccc(Cn3ccccc3=O)cc2)cnn1)[C@H]1C[C@H]1c1cccc(Cl)c1 (racemic) [Example 19, rac-(1R*,2S*)-2-(3-chlorophenyl)-N-(5-((4-((2-oxopyridin-1 (2H)-yl)methyl)benzyl)amino)pyridazin-3-yl)cyclopropane-1-carboxamide] | > 500
16 | O=C(Nc1cc(C2(c3ccc(Cn4cc(Cl)ccc4=O)cc3)CC2)cnn1)[C@H]1C[C@@H]1c1cccc(Cl)c1 (racemic) [Example 20, rac-(1S*,2S*)—N-(5-(1-(4-((5-chloro-2-oxopyridin-1 (2H)-yl)methyl)phenyl)cyclopropyl)pyridazin-3-yl)-2-(3-chlorophenyl)cyclopropane-1-carboxamide] | > 500
17 | O=C(Nc1cc(Cc2ccc3ncc(C4CC4)cc3c2)ncn1)[C@H]1C[C@@H]1c1cccc(Cl)c1 (racemic) [Example 21, rac-(1S*,2S*)-2-(3-chlorophenyl)-N-(6-((3-cyclopropylquinolin-6-yl)methyl)pyrimidin-4-yl)cyclopropane-1-carboxamide] | > 500
18 | N#Cc1ccc(Cl)cc1[C@H]1C[C@@H]1C(=O)Nc1cc(NCc2nc3ccc(C4CC4)cn3n2)ncn1 (racemic) [Example 24, rac-(1S*,2S*)-2-(5-chloro-2-cyanophenyl)-N-(6-(((6-cyclopropyl-[1,2,4]triazolo[1,5-a]pyridin-2-yl)methyl)amino)pyrimidin-4-yl)cyclopropane-1-carboxamide] | 2.5 to 25
19 | N#Cc1ccc(Cl)cc1[C@H]1C[C@@H]1C(=O)Nc1cc(NCc2nc3ccc(C4CC4)nn3n2)ncn1 (racemic) [Example 27, rac-(1S*,2S*)-2-(5-chloro-2-cyanophenyl)-N-(6-(((6-cyclopropyl-[1,2,4]triazolo[1,5-b]pyridazin-2-yl)methyl)amino)pyrimidin-4-yl)cyclopropane-1-carboxamide] | 2.5 to 25
20 | N#Cc1ccc(Cl)cc1[C@H]1C[C@@H]1C(=O)Nc1cc(NCc2nc3ccc(C4CC4)cn3n2)ccn1 (racemic) [Example 30, rac-(1S*,2S*)-2-(5-chloro-2-cyanophenyl)-N-(4-(((6-cyclopropyl-[1,2,4]triazolo[1,5-a]pyridin-2-yl)methyl)amino)pyridin-2-yl)cyclopropane-1-carboxamide] | < 2.5
21 | Cc1ccnc([C@H]2C[C@@H]2C(=O)Nc2cc(N3C[C@@H](O)C[C@H]3c3ccc(N4CC5CC5C4)nc3)ncn2)n1 (mixture of isomers) [Example 70, rac-(1S*,2S*)—N-(6-((2S*,4S)-2-(6-(3-azabicyclo[3.1.0]hexan-3-yl)pyridin-3yl)-4-hydroxypyrrolidin-1-yl)pyrimidin-4-yl)-2-(4-methylpyrimidin-2-yl)cyclopropane-1-carboxamide] | > 500
22 | Cc1ccnc([C@H]2C[C@@H]2C(=O)Nc2cc(NCc3nc4ncc(C5CC5)cn4n3)ncn2)n1 (racemic) [Example 78, rac-(1S*,2S*)—N-(6-(((6-cyclopropyl-[1,2,4]triazolo[1,5-a]pyrimidin-2-yl)methyl)amino)pyrimidin-4-yl)-2-(4-methylpyrimidin-2-yl)cyclopropane-1-carboxamide] | 2.5 to 25
23 | CC(Oc1cnnc(NC(=O)[C@H]2C[C@@H]2c2cccc(Cl)c2)c1)c1ccc(Cn2cccn2)cc1 (relative stereo) [Example 3, rac-(1S*,2S*)-N-(5-(1-(4-((1H-pyrazol-1-yl)methyl)phenyl)ethoxy)pyridazin-3-yl)-2-(3-chlorophenyl)cyclopropane-1-carboxamide] | 2.5 to 25
24 | Cc1ccnc([C@H]2C[C@@H]2C(=O)Nc2cc(N3C[C@@H](O)CC3c3ccc(N4CC5CC5C4)nc3)ncn2)n1 (relative stereo) [Example 69, rac-(1S*,2S*)—N-(6-((4S)-2-(6-(3-azabicyclo[3.1.0]hexan-3-yl)pyrin-3-yl)-4-hydroxypyrrolidin-1-yl)pyrimidin-4-yl)-2-(4-methylpyrimidin-2-yl)cyclopropane-1-carboxamide] | 2.5 to 25
25 | Cc1ccnc([C@H]2C[C@@H]2C(=O)Nc2cc(N3C[C@@H](O)C[C@@H]3c3cn4cc(C5CC5)cnc4n3)ncn2)c1F (relative stereo) [Example 76, rac-(1S*,2S*)—N-(6-((2R,4S)-2-(6-cyclopropylimidazo[1,2-a]pyrimidin-2-yl)-4-hydroxypyrrolidin-1-yl)pyrimidin-4-yl)-2-(3-fluoro-4-methylpyridin-2-yl)cyclopropane-1-carboxamide] | 25 to 500
